By melting point is commonly meant the temperature of the solid-liquid transition.

These results are taken from US20040176361A1, “Fused heterocyclic compound and medicinal use thereof” (priority 2001, published 2004).

For `Cc1cccc2c(=O)[nH]c(CC3CN4CCC3CC4)nc12` (stereo not drawn), the melting point was 187 to 188 °C (dec.).

In turn, `CC1CN(c2cc3ccccc3c(=O)[nH]2)CCN1` (stereo not drawn) displayed a melting point of 164 to 167 °C.

With `CC1CN(c2cc3ccccc3c(=O)[nH]2)CC(C)N1` (stereo not drawn), the melting point fell in the range of 208 to 210 °C.

Turning to `CN1CCC(c2cc3ncccc3c(=O)[nH]2)CC1`, the melting point is > 240 °C (dec.).

In turn, `Cc1c(C2CCN(C)CC2)[nH]c(=O)c2ccccc12` displayed a melting point of 202 to 204 °C.

`CN1CCCC(c2cc3ccccc3c(=O)[nH]2)C1` (stereo not drawn): the melting point fell in the range of 155 to 156 °C.

In the case of `Cc1ccc2c(=O)[nH]c(C3CCN(C)CC3)cc2c1`, the melting point was 236 to 238 °C.

In turn, `Cc1ccc2cc(C3CCN(C)CC3)[nH]c(=O)c2c1` displayed a melting point of 239 to 241 °C.

`Cc1cccc2cc(C3CCN(C)CC3)[nH]c(=O)c12`: the melting point fell in the range of 200 to 202 °C.

With `CN1CCC(c2cc3ccc(O)cc3c(=O)[nH]2)CC1.Cl`, the melting point fell in the range of 284 to 286 °C.

In the case of `Cc1ccc2c(=O)[nH]c(N3CCN(C)CC3)cc2c1`, the melting point is 242 to 243 °C (dec.).

`Cc1cccc2cc(N3CCN(C)CC3)[nH]c(=O)c12`: the melting point was 224 to 225 °C (dec.).

For `Br.O=c1[nH]c(C2CCNCC2)cc2ccccc12`, the melting point was > 270 °C.

In the case of `Br.O=c1[nH]c(C2CCNCC2)c(-c2ccccc2)c2ccccc12`, the melting point was > 270 °C.

As for `CN(C)C1CCN(c2cc3ccccc3c(=O)[nH]2)C1` (stereo not drawn) [Example 2, 3-(3-dimethylaminopyrrolidine-1-yl)-2H-isoquinolin-1-one], the melting point is 233 to 234 °C (dec.).

On to `CCCN1CCN(c2cc3ccccc3c(=O)[nH]2)CC1` [Example 7, 3-(4-propylpiperazine-1-yl)-2H-isoquinolin-1-one], for which the melting point is 208 to 209 °C (dec.).

`CS(=O)(=O)N1CCN(c2cc3ccccc3c(=O)[nH]2)CC1` [Example 8, 3-(4-methanesulfonylpiperazin-1-yl)-2H-isoquinolin-1-one]: the melting point was 257 to 259 °C (dec.).

Turning to `CCOC(=O)N1CCN(c2cc3ccccc3c(=O)[nH]2)CC1` [Example 9, 3-(4-ethoxycarbonylpiperazin-1-yl)-2H-isoquinolin-1-one], the melting point was 191 to 192 °C (dec.).

Take `CN1CCCN(c2cc3ccccc3c(=O)[nH]2)CC1` [Example 10, 3-(4-methylhomopiperazin-1-yl)-2H-isoquinolin-1-one]: the melting point was 171 to 172 °C (dec.).

As for `CN(C)C1CCN(c2cc3ccc(Br)cc3c(=O)[nH]2)CC1` [Example 31, 7-bromo-3-(4-dimethylaminopiperidin-1-yl)-2H-isoquinolin-1-one], the melting point is 227 to 228 °C (dec.).

For the molecule `CN(C)C1CCN(c2cc3c(Br)cccc3c(=O)[nH]2)CC1` [Example 32, 5-bromo-3-(4-dimethylaminopiperidin-1-yl)-2H-isoquinolin-1-one], the melting point was 214 to 215 °C (dec.).

Take `O=c1[nH]c(N2CCN(CCO)CC2)cc2c(F)cccc12` [Example 33, 5-fluoro-3-(4-(2-hydroxyethyl)piperazin-1-yl)-2H-isoquinolin-1-one]: the melting point was 207 to 208 °C (dec.).

On to `Cc1ccc2c(=O)[nH]c(N3CCN(CCO)CC3)cc2c1` [Example 35, 3-(4-(2-hydroxyethyl)piperazin-1-yl)-6-methyl-2H-isoquinolin-1-one], for which the melting point is 236 to 237 °C (dec.).

For the molecule `Cc1cccc2cc(N3CCN(CCO)CC3)[nH]c(=O)c12` [Example 41, 3-[4-(2-hydroxyethyl)piperazin-1-yl]-8-methyl-2H-isoquinolin-1-one], the melting point was 209 to 210 °C (dec.).

Take `Cc1cccc2c(=O)[nH]c(N3CCN(CCCCN4CCN(C)CC4)CC3)cc12` [Example 75, 5-methyl-3-(4-(4-(4-methylpiperazin-1-yl)butyl)piperazin-1-yl)-2H-isoquinolin-1-one]: the melting point is 202 to 203 °C (dec.).

Take `O=c1[nH]c(N2CCN(CCCCN3CCCCC3)CC2)cc2ccc(Br)cc12` [Example 76, 7-bromo-3-{4-[4-(piperidin-1-yl)butyl]piperazin-1-yl}-2H-isoquinolin-1-one]: the melting point is 211 to 212 °C (dec.).

With `O=c1[nH]c(N2CCN(CCCCN3CCCCC3)CC2)cc2c(Cl)cccc12` [Example 77, 5-chloro-3-{4-[4-(piperidin-1-yl)butyl]piperazin-1-yl}-2H-isoquinolin-1-one], the melting point was 172 to 173 °C (dec.).

With `O=c1[nH]c(N2CCN(CCCCN3CCCCC3)CC2)cc2c(Br)cccc12` [Example 78, 5-bromo-3-{4-[4-(piperidin-1-yl)butyl]piperazin-1-yl}-2H-isoquinolin-1-one], the melting point was 165 to 166 °C (dec.).

Turning to `CN1CCN(C(=O)c2cc3ccccc3c(=O)[nH]2)CC1` [Example 83, 3-((4-methylpiperazin-1-yl)carbonyl)-2H-isoquinolin-1-one], the melting point is 170 to 172 °C.

The molecule `COc1ccc(-c2c(C3CCN(C)CC3)[nH]c(=O)c3ccccc23)cc1` [Example 99, 4-(4-methoxyphenyl)-3-(1-methylpiperidin-4-yl)-2H-isoquinolin-1-one] displayed a melting point of 209 to 211 °C.

Turning to `CN1CCC(c2[nH]c(=O)c3ccccc3c2-c2ccc(Cl)cc2)CC1` [Example 100, 4-(4-chlorophenyl)-3-(1-methylpiperidin-4-yl)-2H-isoquinolin-1-one], the melting point was 254 to 256 °C.

Take `CN1CCN(N2CC(=O)c3c(ccc4ccccc34)C2)CC1` [Example 114, 3-(4-methylpiperazin-1-yl)-2H-benz[f]isoquinolin-1-one]: the melting point is 253 to 254 °C (dec.).

In the case of `CN(C)C1CCN(N2CC(=O)c3c(ccc4ccccc34)C2)CC1` [Example 115, 3-(4-dimethylaminopiperidin-1-yl)-2H-benz[f]isoquinolin-1-one], the melting point is 232 to 233 °C (dec.).

In the case of `Cc1cccc2c(=O)[nH]c(C3CCC(N(C)C)CC3)nc12` (stereo not drawn) [Example 137, 8-methyl-2-(4-dimethylaminocyclohexan-1-yl)-3H-quinazolin-4-one], the melting point is 181 to 183 °C (dec.).

For `CN(C)C1CCC(c2cc3ccccc3c(=O)[nH]2)CC1` (stereo not drawn) [Example 147, 3-(4-(dimethylamino)cyclohexan-1-yl)-2H-isoquinolin-1-one], the melting point lay in the range of 256 to 258 °C.

`CN1CCN(CCCc2cc3ccccc3c(=O)[nH]2)CC1` [Example 148, 3-(3-(4-methylpiperazin-1-yl)propyl)-2H-isoquinolin-1-one] yielded a melting point of 120 to 122 °C.

On to `CN1CCN(c2cc3ccccc3c(=O)[nH]2)[C@@H](CO)C1` [Example 151, (R)-3-(2-hydroxymethyl-4-methylpiperazin-1-yl)-2H-isoquinolin-1-one], for which the melting point fell in the range of 172 to 174 °C.

For the molecule `CN1CCN(c2cc3ccccc3c(=O)[nH]2)[C@H](CO)C1` [Example 152, (S)-3-(2-hydroxymethyl-4-methylpiperazin-1-yl)-2H-isoquinolin-1-one], the melting point fell in the range of 169 to 171 °C.

Molecule `CCOC(=O)C1CN(c2cc3ccccc3c(=O)[nH]2)CCN1C` (stereo not drawn) [Example 154, 3-(3-ethoxycarbonyl-4-methylpiperazin-1-yl)-2H-isoquinolin-1-one] came in with a melting point of 105 to 109 °C.

In turn, `CN1CCC(C2Cc3ccccc3C(=O)N2)CC1` (stereo not drawn) [Example 158, 3-(1-methylpiperidin-4-yl)-3,4-dihydro-2H-isoquinolin-1-one] yielded a melting point of 139 to 141 °C.

`Cc1ccc(-c2c(C3CCN(C)CC3)[nH]c(=O)c3ccccc23)cc1` [Example 163, 4-(4-methylphenyl)-3-(1-methylpiperidin-4-yl)-2H-isoquinolin-1-one] gave a melting point of 244 to 246 °C.

The molecule `CN1CCC(c2[nH]c(=O)c3ccccc3c2-c2ccc(F)cc2)CC1` [Example 164, 4-(4-fluorophenyl)-3-(1-methylpiperidin-4-yl)-2H-isoquinolin-1-one] returned a melting point of 269 to 271 °C.

Molecule `COc1ccccc1-c1c(C2CCN(C)CC2)[nH]c(=O)c2ccccc12` [Example 167, 4-(2-methoxyphenyl)-3-(1-methylpiperidin-4-yl)-2H-isoquinolin-1-one] displayed a melting point of 153 to 155 °C.

`Cc1cccc(-c2c(C3CCN(C)CC3)[nH]c(=O)c3ccccc23)c1` [Example 168, 4-(3-methylphenyl)-3-(1-methylpiperidin-4-yl)-2H-isoquinolin-1-one] yielded a melting point of 214 to 216 °C.

`Cc1ccccc1-c1c(C2CCN(C)CC2)[nH]c(=O)c2ccccc12` [Example 169, 4-(2-methylphenyl)-3-(1-methylpiperidin-4-yl)-2H-isoquinolin-1-one] came in with a melting point of 249 to 251 °C.

On to `COc1cccc(-c2c(C3CCN(C)CC3)[nH]c(=O)c3ccccc23)c1` [Example 170, 4-(3-methoxyphenyl)-3-(1-methylpiperidin-4-yl)-2H-isoquinolin-1-one], for which the melting point is 181 to 183 °C.

For the molecule `COCOc1cccc2c(=O)[nH]c(C3CCN(C)CC3)cc12` [Example 171, 5-methoxymethyloxy-3-(1-methylpiperidin-4-yl)-2H-isoquinolin-1-one], the melting point is 194 to 196 °C.

`CN1CCC(c2cc3c(N(C)C)cccc3c(=O)[nH]2)CC1` [Example 180, 5-(dimethylamino)-3-(1-methylpiperidin-4-yl)-2H-isoquinolin-1-one] returned a melting point of 216 to 218 °C.

In turn, `CN1CCC(c2[nH]c(=O)c3ccccc3c2-c2ccccc2F)CC1` [Example 182, 4-(2-fluorophenyl)-3-(1-methylpiperidin-4-yl)-2H-isoquinolin-1-one] returned a melting point of 247 to 249 °C.

Regarding `COCOc1cccc2c(=O)[nH]c(CCCN(C)C)cc12` [Example 185, 5-methoxymethyloxy-3-(3-dimethylaminopropyl)-2H-isoquinolin-1-one], the melting point lay within 110 to 112 °C.

On to `COCOc1cccc2c(=O)[nH]c(CCCCN(C)C)cc12` [Example 187, 5-methoxymethyloxy-3-(4-dimethylaminobutyl)-2H-isoquinolin-1-one], for which the melting point was 109 to 111 °C.
